Test results taken from patent publication US12485191B2, “Radiopharmaceuticals and methods of use thereof” (BOARD OF REGENTS OF THE UNIVERSITY OF NEBRASKA, priority 2017, dated 2025).
Marks after values point to notes of the source that are not given here.

What was measured:
[1] = target: T1, cathepsin B (human Liver) (Homo sapiens, UniProt P07858); assay: Inhibition constant (Ki) of the compounds to cathepsin B; type: biochemical
T1 construct: from tissue; host or cells: human liver
Protocol: Determination of the Km and Vmax of Cathepsin B for Z-Arg-Arg-AMC
The solution of cathepsin B (human Liver) (50 μL, 2 nM) in assay buffer used above was mixed with 50 μL of solution of substrate Z-Arg-Arg-AMC in the assay buffer at different concentrations ([S]) (25 μM, 50 μM, 100 μM, 500 μM and 1 mM). The mixture was incubated at 37° C. and the fluorescence of the liberated aminomethylcoumarin at 460 nM using 355 nm excitation was measured at predetermined time points (0, 2, 4, 6, 8, and 10 minutes). The fluorescence intensity was plotted versus time and the reaction rates (v0) were calculated as the slope of the trend lines obtained by liner regression. Km and maximum reaction rate (Vmax-obs) was determined from the equation v0=Vmax[S]/(Km+[S]) and solved by nonlinear regression using GraphPad Prism 5. All measurements were in biological triplicate.
Determination of the Inhibition Constant (Ki) of the Compounds to Cathepsin B
The cathepsin B (human Liver) in assay buffer (25 μL) was mixed with the conjugate (25 μL) in 96-well plate. After the solution was mixed, the Z-Arg-Arg-AMC in assay buffer (50 μL) was added to the well, yielding a final cathepsin B concentration of 1 nM, conjugate concentration ([C]) of 15 nM or 5 μM, and substrate concentration ([S]) of 25 μM, 50 μM, 100 μM, 500 μM and 1 mM. The mixture was incubated at 37° C. and the fluorescence of the liberated aminomethylcoumarin at 460 nM using 355 nm excitation was measured at predetermined time points (0, 2, 4, 6, 8, and 10 minutes). The fluorescence intensity was plotted versus time with observed reaction rates (v0-obs) calculated as the slope of the trend lines obtained by liner regression. The observed rate constant (Kobs) and observed maximum reaction rate (Vmax-obs) was determined from the equation v0-obs=Vmax-obs [S]/(Kobs+[S]) and solved by nonlinear regression using GraphPad Prism 5. The Ki was calculated from the equation Kobs=Km (1+[C]/Ki). All measurements were in biological triplicate.

[2] = Distribution coefficient (Log D7.4) of the conjugates; type: physicochemical; conditions: determined by HPLC analysis
[3] = system: HT-29 cells; assay: HT-29 cell efflux study; type: cell-based, human; conditions: at 24 hours
Protocol: The HT-29 Cell Efflux Studies
The ^177Lu radioconjugate was added to a sterilized 1.5 mL microcentrifuge tube containing HT-29 cells ˜1×10^6) suspended in 300 μL of cell culture medium, yielding a final radioactivity concentration of 100,000 cpm/100 μL, and was incubated for 2 hours at 37° C. After the removal of the culture medium, the cells were washed with fresh medium (5×500 μL) followed by the addition of 500 μL of fresh medium for the efflux assay. At 0, 1, 2, 4, 8, and 24 hour time interval, fresh medium (500 μL) was added to the tube to replace the old medium which was harvested for quantitative analysis of the effluxed radioactivity using a gamma counter. The cells were lysed with a 10% aqueous SDS solution at 24 hour to quantify the remaining internalized radioactivity. The effluxed fraction is expressed as a percentage of the total radioactivity added to the tube, which is the sum of the effluxed and internalized fractions obtained from the study.

[4] = system: HT-29 cells; assay: Intracellular trapping of the radioconjugates in living HT-29 cells (GPC, SDS-PAGE); type: cell-based, human; conditions: for intracellular adduct formation (in words): live HT-29 cells, GPC and SDS-PAGE
Protocol: Intracellular Trapping of the Radioconjugates in Living HT-29 Cells
To the HT-29 cells (1×10^6/well) seeded in 6-well plates was added the radioconjugates (0.74 MBq, 20 μCi) in 1 mL of cell culture medium. The cells were incubated at 37° C. for 4 hours and the medium was removed by vacuum followed washing with PBS (2×2 mL). The cells (˜3×10^6) were trypsinized and combined in microcentrifuge. The RIPA buffer (100 μL) containing Halttmprotease inhibitor (100×, 1 μL) was added to the cell pellet and vigorously vortexed for 1 minute. The suspension was incubated on ice for 15 minutes and centrifuged to remove the pellet. The supernatant (80 μL) was equally divided into two portions. The first portion (40 μL) was directly analyzed by radioactive-GPC with a flow rate of 0.6 mL/minute (40% ACN in PBS containing 0.1% sodium azide). The second portion (40 μL) of the cell lysate was mixed with Novex Tris-Glycine SDS sample buffer (2×) (40 μL) and incubated for another 15 minutes. The mixture (30 μL) was loaded onto a Novex 16% tris-glycine gel and analyzed by SDS-PAGE at 110 V for 90 minutes. The autoradiograph of the SDS-PAGE was performed as described above.

[5] = target: T1, cathepsin B (human Liver); assay: Cathepsin B binding of the radioconjugates (autoradiographic SDS-PAGE); conditions: 2 hours
Protocol: Cathepsin B Binding of the Radioconjugates This procedure uses the same solutions as described above. The cathepsin B (human Liver)(3 nM, 10 μL) in storing buffer was added to the solution of the radioconjugate (500,000 cpm) in 40 μL of binding assay buffer and kept on ice for 2 hours. An aliquot (25 μL) of the solution was mixed with Novex Tris-Glycine SDS sample buffer (2×) (25 μL) and incubated for a further 10 minutes. The mixtures (20 μL) were loaded onto a Novex 16% tris-glycine gel and analyzed by SDS-PAGE at 110 V for 90 minutes. The autoradiograph of the SDS-PAGE was performed as described above.

[6] = Distribution coefficient (Log D7.4) of the conjugates; type: physicochemical
Protocol: Distribution Coefficient (Log D7.4) of the Conjugates The distribution coefficient was determined for each ^177Lu-labeled conjugate. In a 1.5 mL centrifuge tube, 0.5 mL of 1-octanol was added to 0.5 mL of PBS (pH 7.4) containing the radiolabeled peptide (500,000 cpm). The solution was vigorously vortexed for 2 minutes at room temperature and subsequently centrifuged to yield two immiscible layers. The radioactivity of the aliquots (100 μL) taken from each layer were quantified by the gamma counter and the Log D7.4 for each conjugates was calculated.

[7] = target: CatB (Homo sapiens, UniProt P07858); assay: CatB inhibition of GRPR-targeted agents; type: biochemical
Protocol: The Inhibition of Cathepsin B Activity by the Conjugates The phosphate buffer (0.1 M, pH=5.8) containing EDTA (1 mM), DTT (2.7 mM), and Brij®35 (0.03%) was prepared before the assay. […] The solution of cathepsin B (human Liver) in assay buffer (50 μL, 0.544 nM) was added to the mixture which was further incubated at 37° C. for 20 minutes. The fluorescence of the liberated aminomethylcoumarin at 460 nM using 355 nm excitation was measured and the IC50 of the cathepsin B inhibition versus the samples without the inhibitor was determined by nonlinear regression using GraphPad Prism 5.

[8] = system: PC-3 cells; assay: Efflux study in PC-3 cells; type: cell-based, human; conditions: over a 24 hour time period
[9] = system: PC-3 cells; assay: Cellular adduct study (SDS-PAGE of cellular lysates); type: cell-based, human
[10] = system: PC-3 tumor; assay: Autoradiography of SDS-PAGE of tissue lysates from PC-3 tumor bearing mice; type: in vivo; conditions: liver, pancreas, kidney at 24 and 72 hours post-injection
[11] = system: PC-3 tumor; conditions: mouse, in vivo

| Structure (SMILES) | logD7.4 [2] | CatB K1 [1] | efflux [3] | intracellular adduct formation (in words) [4] | logD7.4 ([6]; GRPR-targeted agents) | inhibition of catB (in words) [7] | reduction in efflux compared to the analogous control [8] | cellular adducts (in words) [9] | adduct formation in tissue lysates (in words) [10] | tumor retention [11] | further results |
| --- | --- | --- | --- | --- | --- | --- | --- | --- | --- | --- | --- |
| Cc1cc(C)c(C(=O)OCC(=O)[C@H](CCCCN)NC(=O)[C@H](Cc2ccccc2)NC(=O)OCc2ccccc2)c(C)c1 [Compound 1a] | 2.08 ± 0.08^a |  |  |  |  |  |  |  |  |  | Ki ([1]; read-out: CatB K1): 23 ± 1 nM |
| NCCCCC(NC(=O)C(Cc1ccccc1)NC(=O)OCc1ccccc1)C(=O)NCCc1ccccc1 (stereo not shown) [Compound 1b] | 2.51 ± 0.02^a | ni^c |  |  |  |  |  |  |  |  |  |
| Cc1cc(C)c(C(=O)OCC(=O)[C@H](CCCCNC(=O)COCCOCCOCCn2cc(C[C@H](NC(=O)CN3CCN(CC(=O)O)CCN(CC(=O)O)CCN(CC(=O)O)CC3)C(=O)NCCC(=O)N[C@@H](CCCCN)C(=O)N3CCC[C@H]3C(=O)N(C)[C@@H](CCCNC(=N)N)C(=O)N[C@@H](CCCNC(=N)N)C(=O)N3CCC[C@H]3C(=O)N[C@@H](Cc3c(C)cc(O)cc3C)C(=O)N[C@H](C(=O)N[C@@H](CC(C)C)C(=O)O)C(C)(C)C)nn2)NC(=O)[C@H](Cc2ccccc2)NC(=O)OCc2ccccc2)c(C)c1 [Compound 2c] |  |  | 36% | multiple macromolecule adducts formed |  |  |  |  |  |  | percentage of macromolecular adducts with respect to total intracellular activity ([4]; GPC profile, HT-29 cells, 4 hours incubation): 61%; adduct formation with CatB (in words) [5]: adduct formation |
| Cc1cc(O)cc(C)c1C[C@H](NC(=O)[C@@H]1CCCN1C(=O)[C@H](CCCNC(=N)N)NC(=O)[C@H](CCCNC(=N)N)N(C)C(=O)[C@@H]1CCCN1C(=O)[C@H](CCCCN)NC(=O)CCNC(=O)[C@H](Cc1cn(CCOCCOCCOCC(=O)NCCCC[C@H](NC(=O)[C@H](Cc2ccccc2)NC(=O)OCc2ccccc2)C(=O)NCCc2ccccc2)nn1)NC(=O)CN1CCN(CC(=O)O)CCN(CC(=O)O)CCN(CC(=O)O)CC1)C(=O)N[C@H](C(=O)N[C@@H](CC(C)C)C(=O)O)C(C)(C)C [Compound 3a] |  | ni | 66% | no adduct formation |  |  |  |  |  |  | logD7.4 ([6]; determined by radiometric analysis, 177Lu-labeled conjugate): −1.56 ± 0.07^b; Ki and inhibition IC50 to CatB (in words) [1]: did not demonstrate any inhibition |
| CSCC[C@H](NC(=O)[C@H](CC(C)C)NC(=O)[C@H](Cc1c[nH]cn1)NC(=O)CNC(=O)[C@@H](NC(=O)[C@H](C)NC(=O)[C@H](Cc1c[nH]c2ccccc12)NC(=O)[C@H](CCC(N)=O)NC(=O)CCOCCOCCOCCOCCNC(=O)[C@H](Cc1cn(CCNC(=O)[C@H](CCCNC(=N)N)NC(=O)[C@H](CC(C)C)NC(=O)C2OC2C(=O)O)nn1)NC(=O)CN1CCN(CC(=O)O)CCN(CC(=O)O)CCN(CC(=O)O)CC1)C(C)C)C(N)=O (stereo partly shown) [^177Lu-A-AG, metal not drawn] |  |  |  |  | −3.1 ± 0.1 | low nanomolar inhibition | ~20% | cellular adducts are observed | formation of adducts | 62% |  |
| CC(C)C[C@H](NC(=O)C1OC1C(=O)O)C(=O)N[C@@H](CCCNC(=N)N)C(=O)NCCn1cc(C[C@H](NC(=O)CN2CCN(CC(=O)O)CCN(CC(=O)O)CCN(CC(=O)O)CC2)C(=O)NCCOCCOCCOCCOCCC(=O)N[C@H](Cc2ccccc2)C(=O)N[C@@H](CCC(N)=O)C(=O)N[C@@H](Cc2c[nH]c3ccccc23)C(=O)N[C@@H](C)C(=O)N[C@H](C(=O)NCC(=O)N[C@@H](Cc2c[nH]cn2)C(=O)N[C@@H](CC(C)C)[C@@H](O)CC(=O)N[C@H](CC(C)C)C(N)=O)C(C)C)nn1 (stereo partly shown) [^177Lu-A-ANT, metal not drawn] |  |  |  |  | −2.3 ± 0.2 | low nanomolar inhibition | 5% | cellular adducts are observed | formation of adducts | 32% |  |
